# Assay results taken from patent US20190240379A1, “NOVEL COMPOSITIONS ACTIVE ON ADIPOCYTES” (BIOXIS PHARMACEUTICALS, priority 2016, published 2019).
# Test system: 3T3L1 murine adipocyte line
# Protocol: For example, a 2% (w/w) chitosan preparation obtained in example 1 (DA: 2%, Mw: 450000 g·mol^−1, Bioxis Pharmaceuticals S.A.S.) is diluted in a saline solution (NaCl at 300 mOsmol·l^−1) containing 1% (w/w) of acetic acid in a well (in 24-well plates) and then distributed over half of the other wells, dried, rinsed with PBS and then with the culture medium before cell seeding (3T3L1 murine adipocyte line ATCC CL-173™). When the cells are at confluence, differentiation is induced by adding a differentiation medium. The cells are then treated with a small dose of oleic acid (OA, 2.5 μM) for 6 hours. The cells are put back in a culture medium without OA until the next day in order to avoid any background noise from the OA. Proliferation is analysed by phase contrast microscopy (×20): the images are taken at various times (2 days and 5 days post seeding), at an identical position for each well. […] The marking is observed in fluorescence microscopy and quantification carried out by imaging. The imaging and the fluorescence quantification are carried out on a real-time imaging station. The controls are fixed before the induction of differentiation (confluence, DO).
substance,measurement,value
chitosan,chitosan concentration with toxic effect on the 3T3L1 line,greater than or equal to 2%
same,morphology of the cells,aggressive or even toxic medium
